# In PMC6886737 (Bioorganic & medicinal chemistry letters, 2019):
# Key:
# CDK14 [1] = target: T1, CDK14 (Homo sapiens, UniProt O94921); assay: Biotin JNK-IN-7 pull-down assay, cellular CDK14 engagement; conditions: for concentration at which CDK14 pulldown is blocked / effects shown / activity in the cellular pull-down assay: cells treated 4 h
# Target sequence in this assay (O94921 whole entry): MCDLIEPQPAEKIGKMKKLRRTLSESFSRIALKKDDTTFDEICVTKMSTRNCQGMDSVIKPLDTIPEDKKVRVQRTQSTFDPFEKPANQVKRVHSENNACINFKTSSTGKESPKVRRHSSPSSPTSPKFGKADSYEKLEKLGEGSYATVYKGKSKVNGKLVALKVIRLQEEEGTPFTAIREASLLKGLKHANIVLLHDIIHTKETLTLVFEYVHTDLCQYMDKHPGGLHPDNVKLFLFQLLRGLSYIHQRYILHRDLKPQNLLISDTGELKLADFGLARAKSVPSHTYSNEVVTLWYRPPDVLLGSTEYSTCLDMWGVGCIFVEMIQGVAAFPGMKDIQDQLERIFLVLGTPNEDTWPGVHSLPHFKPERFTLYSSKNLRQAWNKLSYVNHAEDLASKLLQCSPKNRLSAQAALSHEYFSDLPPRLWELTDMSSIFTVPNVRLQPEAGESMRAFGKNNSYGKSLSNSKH
# CDK14 [2] = target: T1, CDK14; assay: LanthaScreen CDK14 binding assay
# Target sequence in this assay (O94921 whole entry): as above
# Target sequence in this assay (Q8ND76 whole entry partner): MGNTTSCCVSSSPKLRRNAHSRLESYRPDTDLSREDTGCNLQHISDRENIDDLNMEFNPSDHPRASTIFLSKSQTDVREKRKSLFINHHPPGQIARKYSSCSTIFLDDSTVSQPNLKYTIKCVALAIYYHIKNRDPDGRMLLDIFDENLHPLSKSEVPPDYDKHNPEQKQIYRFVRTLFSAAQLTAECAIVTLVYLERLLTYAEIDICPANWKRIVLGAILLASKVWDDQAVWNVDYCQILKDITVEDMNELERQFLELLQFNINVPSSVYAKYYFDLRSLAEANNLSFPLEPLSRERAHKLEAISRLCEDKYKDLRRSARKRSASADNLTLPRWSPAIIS
# HCT116 cell line = assay: CellTiter-Glo proliferation assay; assay type: cell-based
# CDK16 = CDK16 (Homo sapiens, UniProt Q00536); assay: KiNativ profiling; assay type: cell-based; conditions: read-out: CDK16 percent inhibition relative to DMSO
# CDK2 = CDK2 (Homo sapiens, UniProt P24941); assay: KiNativ profiling; assay type: cell-based; conditions: read-out: CDK2 percent inhibition relative to DMSO
# CDK10 = CDK10 (Homo sapiens, UniProt Q15131); assay: KiNativ profiling; assay type: cell-based; conditions: read-out: CDK10 percent inhibition relative to DMSO
# Sequence of CDK10 (Q15131 whole entry): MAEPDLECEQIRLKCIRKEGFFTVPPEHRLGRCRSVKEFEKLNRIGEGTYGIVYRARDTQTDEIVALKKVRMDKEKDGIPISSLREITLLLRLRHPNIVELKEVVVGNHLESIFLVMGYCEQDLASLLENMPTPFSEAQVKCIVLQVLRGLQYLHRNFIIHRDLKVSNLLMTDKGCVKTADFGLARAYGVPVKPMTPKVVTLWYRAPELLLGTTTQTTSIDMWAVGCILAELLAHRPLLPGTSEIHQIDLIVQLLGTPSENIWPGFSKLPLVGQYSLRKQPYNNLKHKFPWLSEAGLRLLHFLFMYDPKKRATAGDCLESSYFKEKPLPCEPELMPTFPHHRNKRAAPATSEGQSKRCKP
# Sequence of CDK16 (Q00536 whole entry): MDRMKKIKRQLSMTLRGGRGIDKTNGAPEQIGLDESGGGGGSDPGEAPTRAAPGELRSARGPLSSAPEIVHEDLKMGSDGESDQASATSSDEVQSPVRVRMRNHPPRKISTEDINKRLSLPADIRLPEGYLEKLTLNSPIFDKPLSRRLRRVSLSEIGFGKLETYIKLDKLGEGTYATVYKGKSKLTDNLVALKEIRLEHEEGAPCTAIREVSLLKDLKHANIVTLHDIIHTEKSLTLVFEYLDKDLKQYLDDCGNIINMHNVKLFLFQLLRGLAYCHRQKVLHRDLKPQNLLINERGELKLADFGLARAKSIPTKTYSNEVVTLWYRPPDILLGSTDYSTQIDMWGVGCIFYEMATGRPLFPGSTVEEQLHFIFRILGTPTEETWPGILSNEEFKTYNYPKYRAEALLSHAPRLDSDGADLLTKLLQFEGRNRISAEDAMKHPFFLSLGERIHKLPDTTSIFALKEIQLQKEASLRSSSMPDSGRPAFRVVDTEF
structure (smiles),measurement,setting,value
"O=C(NC1CCNCC1)c1n[nH]cc1NC(=O)c1c(Cl)cccc1Cl [AT7519, N-(4-piperidinyl)-4-(2,6-dichlorobenzoylamino)-1H-pyrazole-3-carboxamide, reference compound]",CDK14 cellular engagement screen result,"CDK14 [1]; 1 μM, screen of library of reported CDK inhibitors",efficient CDK14 inhibitor
C=CC(=O)Nc1cccc(C(=O)N2CCC(NC(=O)c3n[nH]cc3NC(=O)c3c(Cl)cccc3Cl)CC2)c1.O=C(O)C(F)(F)F [Compound 27],concentration at which CDK14 pulldown is blocked / effects shown,CDK14 [1],500 to 1000 nM
CN(C)C/C=C/C(=O)Nc1cccc(C(=O)Nc2ccc(NC(=O)c3n[nH]cc3NC(=O)c3c(Cl)cccc3Cl)cc2)c1.O=C(O)C(F)(F)F [Compound 46],concentration at which CDK14 pulldown is blocked / effects shown,CDK14 [1],500 to 1000 nM
C=CC(=O)Nc1cccc(C(=O)Nc2ccc(NC(=O)c3n[nH]cc3NC(=O)c3c(Cl)cccc3Cl)c(C)c2)c1.O=C(O)C(F)(F)F [Compound 47],CDK14 binding potency,CDK14 [2],not tolerated by CDK14
Cc1cc(NC(=O)c2cccc(NC(=O)/C=C/CN(C)C)c2)ccc1NC(=O)c1n[nH]cc1NC(=O)c1c(Cl)cccc1Cl.O=C(O)C(F)(F)F [Compound 48],CDK14 binding potency,CDK14 [2],not tolerated by CDK14
CN(C)CC/C=C/C(=O)Nc1ccc(N2CCC(NC(=O)c3n[nH]cc3NC(=O)c3c(Cl)cccc3Cl)CC2)cc1.O=C(O)C(F)(F)F [Compound 54],HCT116 toxicity,HCT116 cell line,low HCT116 toxicity
CN(C)CC/C=C/C(=O)Nc1cccc(N2CCC(NC(=O)c3n[nH]cc3NC(=O)c3c(Cl)cccc3Cl)CC2)c1.O=C(O)C(F)(F)F [Compound 56],HCT116 toxicity,HCT116 cell line,low HCT116 toxicity
same,activity in the cellular pull-down assay,CDK14 [1],"not active, or weakly active"
CN(C)CC/C=C/C(=O)Nc1ccc(S(=O)(=O)N2CC[C@@H](NC(=O)c3n[nH]cc3NC(=O)c3c(Cl)cccc3Cl)C2)cc1.O=C(O)C(F)(F)F [Compound 68],activity in the cellular pull-down assay,CDK14 [1],"not active, or weakly active"
CN(C)C/C=C/C(=O)Nc1cccc(S(=O)(=O)N2CCC(NC(=O)c3n[nH]cc3NC(=O)c3c(Cl)cc(Cl)cc3Cl)CC2)c1.O=C(O)C(F)(F)F [Compound 100],inhibition at 1 µM,CDK16,> 75%
same,inhibition at 1 µM,CDK2,> 75%
same,inhibition at 1 µM,CDK10,> 75%
same,concentration for complete inhibition of CDK14 pull-down,CDK14 [1],below 1 μM
CN(C)C/C=C/C(=O)Nc1cccc(S(=O)(=O)N2CCC(NC(=O)c3n[nH]cc3NC(=O)c3ccccc3)CC2)c1.O=C(O)C(F)(F)F [Compound 107],CDK14 binding potency,CDK14 [2],potent CDK14 inhibition
same,HCT116 toxicity,HCT116 cell line,reduced HCT116 toxicity
